These results are taken from ChEMBL document CHEMBL4619804, “Target-Based Identification and Optimization of 5-Indazol-5-yl Pyridones as Toll-like Receptor 7 and 8 Antagonists Using a Biochemical TLR8 Antagonist Competition Assay” (J Med Chem, 2020).

The target of one assay is Toll-like receptor 5 (Homo sapiens, UniProt O60602). Put plainly: Antagonist activity at TLR5 in human PBMC assessed as inhibition of flagellin-induced TNFalpha production preincubated for 30 mins followed by flagellin addition and measured after 20 hrs by HTRF assay. The format is cell-based. (Time-resolved FRET reads energy transfer from a long-lived donor to a nearby acceptor.)
Toll-like receptor 5, sequence (O60602 whole entry): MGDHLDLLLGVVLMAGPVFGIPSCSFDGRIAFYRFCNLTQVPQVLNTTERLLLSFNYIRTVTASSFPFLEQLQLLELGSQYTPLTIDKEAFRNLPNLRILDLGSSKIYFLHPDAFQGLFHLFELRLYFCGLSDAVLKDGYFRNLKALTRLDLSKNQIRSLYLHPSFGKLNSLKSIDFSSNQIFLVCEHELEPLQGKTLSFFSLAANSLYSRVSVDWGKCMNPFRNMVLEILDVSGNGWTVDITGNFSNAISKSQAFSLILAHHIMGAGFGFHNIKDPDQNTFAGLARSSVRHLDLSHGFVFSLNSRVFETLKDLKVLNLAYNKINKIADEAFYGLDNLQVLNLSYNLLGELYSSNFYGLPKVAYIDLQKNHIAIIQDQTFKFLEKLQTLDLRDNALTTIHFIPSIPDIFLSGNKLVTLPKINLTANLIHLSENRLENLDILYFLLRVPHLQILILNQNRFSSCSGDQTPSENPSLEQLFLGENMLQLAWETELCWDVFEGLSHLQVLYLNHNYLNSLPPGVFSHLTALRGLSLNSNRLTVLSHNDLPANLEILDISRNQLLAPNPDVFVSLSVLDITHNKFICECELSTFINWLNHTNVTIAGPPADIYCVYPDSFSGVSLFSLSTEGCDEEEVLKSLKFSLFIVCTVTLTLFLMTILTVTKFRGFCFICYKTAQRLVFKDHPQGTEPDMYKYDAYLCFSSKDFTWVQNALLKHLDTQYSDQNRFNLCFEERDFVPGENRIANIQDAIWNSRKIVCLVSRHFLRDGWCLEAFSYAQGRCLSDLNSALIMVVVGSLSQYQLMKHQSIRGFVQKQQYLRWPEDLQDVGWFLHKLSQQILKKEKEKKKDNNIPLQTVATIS

The target in the next assay is Toll-like receptor 4 (Homo sapiens, UniProt O00206). Put plainly: Antagonist activity at TLR4 in human PBMC assessed as inhibition of LPS-induced TNFalpha production preincubated for 30 mins followed by LPS addition and measured after 20 hrs by HTRF assay. In kind it is cell-based.
Toll-like receptor 4, sequence (O00206 whole entry): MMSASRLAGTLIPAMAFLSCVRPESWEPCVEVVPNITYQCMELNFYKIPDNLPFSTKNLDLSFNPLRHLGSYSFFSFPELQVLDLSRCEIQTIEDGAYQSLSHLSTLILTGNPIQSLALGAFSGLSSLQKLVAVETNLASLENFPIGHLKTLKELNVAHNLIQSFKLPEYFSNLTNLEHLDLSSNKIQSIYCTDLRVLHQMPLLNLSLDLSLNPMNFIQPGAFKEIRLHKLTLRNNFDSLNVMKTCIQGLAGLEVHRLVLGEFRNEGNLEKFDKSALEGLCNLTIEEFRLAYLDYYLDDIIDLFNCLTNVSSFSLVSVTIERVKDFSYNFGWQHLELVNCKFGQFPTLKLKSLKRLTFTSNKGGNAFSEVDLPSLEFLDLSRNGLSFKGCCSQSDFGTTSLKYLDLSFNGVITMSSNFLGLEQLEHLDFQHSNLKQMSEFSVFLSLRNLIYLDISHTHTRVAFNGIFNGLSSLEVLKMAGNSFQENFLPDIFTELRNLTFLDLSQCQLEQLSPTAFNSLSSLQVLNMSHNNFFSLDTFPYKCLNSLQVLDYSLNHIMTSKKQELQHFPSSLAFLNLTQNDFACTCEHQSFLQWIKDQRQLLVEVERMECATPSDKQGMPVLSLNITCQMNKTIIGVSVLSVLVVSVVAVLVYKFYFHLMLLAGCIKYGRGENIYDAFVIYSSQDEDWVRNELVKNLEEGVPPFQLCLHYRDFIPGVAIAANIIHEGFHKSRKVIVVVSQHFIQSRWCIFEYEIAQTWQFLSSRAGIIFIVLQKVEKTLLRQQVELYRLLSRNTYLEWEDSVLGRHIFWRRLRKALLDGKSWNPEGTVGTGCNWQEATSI
In assay [1] the target is T1, Interleukin-1 receptor type 1 (Homo sapiens, UniProt P14778).
T1 sequence (P14778 whole entry): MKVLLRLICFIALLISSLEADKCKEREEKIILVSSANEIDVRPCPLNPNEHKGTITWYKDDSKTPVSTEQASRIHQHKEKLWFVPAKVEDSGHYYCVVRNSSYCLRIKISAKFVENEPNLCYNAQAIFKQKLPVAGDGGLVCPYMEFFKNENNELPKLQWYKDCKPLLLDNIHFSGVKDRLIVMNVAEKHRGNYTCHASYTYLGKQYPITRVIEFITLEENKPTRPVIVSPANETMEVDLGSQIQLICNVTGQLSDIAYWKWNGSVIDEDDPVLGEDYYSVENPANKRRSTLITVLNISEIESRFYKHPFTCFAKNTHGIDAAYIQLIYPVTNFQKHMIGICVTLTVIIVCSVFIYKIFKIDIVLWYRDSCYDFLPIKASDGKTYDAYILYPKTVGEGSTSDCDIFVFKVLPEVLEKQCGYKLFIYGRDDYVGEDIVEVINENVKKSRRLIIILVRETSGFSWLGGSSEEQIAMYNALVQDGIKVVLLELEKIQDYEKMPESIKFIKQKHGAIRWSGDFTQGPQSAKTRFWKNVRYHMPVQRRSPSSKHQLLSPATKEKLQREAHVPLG
Put plainly: Antagonist activity at IL1R in human PBMC assessed as inhibition of IL1beta-induced TNFalpha production preincubated for 30 mins followed by IL1beta addition and measured after 20 hrs by HTRF assay. The format is cell-based.

The next assay concerns the target T2, Toll-like receptor 1 (Homo sapiens, UniProt Q15399).
T2 sequence (Q15399 whole entry): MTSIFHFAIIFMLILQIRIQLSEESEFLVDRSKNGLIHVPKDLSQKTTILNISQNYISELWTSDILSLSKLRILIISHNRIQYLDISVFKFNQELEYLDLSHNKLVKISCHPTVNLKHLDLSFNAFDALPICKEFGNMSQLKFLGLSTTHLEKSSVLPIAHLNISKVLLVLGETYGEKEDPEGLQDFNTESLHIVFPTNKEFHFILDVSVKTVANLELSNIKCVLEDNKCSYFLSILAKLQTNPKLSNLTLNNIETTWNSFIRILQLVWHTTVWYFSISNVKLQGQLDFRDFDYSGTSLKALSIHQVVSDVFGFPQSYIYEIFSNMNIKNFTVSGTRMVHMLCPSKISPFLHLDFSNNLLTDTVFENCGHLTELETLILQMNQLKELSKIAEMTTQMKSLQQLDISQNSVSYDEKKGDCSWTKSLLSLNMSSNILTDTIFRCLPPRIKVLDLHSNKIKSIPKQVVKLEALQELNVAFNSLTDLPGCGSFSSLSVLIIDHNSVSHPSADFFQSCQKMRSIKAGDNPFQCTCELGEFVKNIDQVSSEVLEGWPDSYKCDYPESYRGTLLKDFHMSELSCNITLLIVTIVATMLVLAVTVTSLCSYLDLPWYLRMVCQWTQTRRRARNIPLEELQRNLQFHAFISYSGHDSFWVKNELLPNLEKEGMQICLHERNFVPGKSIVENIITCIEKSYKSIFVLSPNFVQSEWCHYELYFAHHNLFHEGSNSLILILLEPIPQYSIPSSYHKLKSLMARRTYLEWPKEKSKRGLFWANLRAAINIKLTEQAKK
As to the kind of experiment: Antagonist activity at TLR1 in human PBMC assessed as inhibition of Pam3CSK4-induced TNFalpha production preincubated for 30 mins followed by Pam3CSK4 addition and measured after 20 hrs by HTRF assay. In kind it is cell-based.

A further assay concerns the target Toll-like receptor 2 (Homo sapiens, UniProt O60603). Put plainly: Antagonist activity at TLR2 in human PBMC assessed as inhibition of Pam3CSK4-induced TNFalpha production preincubated for 30 mins followed by Pam3CSK4 addition and measured after 20 hrs by HTRF assay. In kind it is cell-based.
A further assay deals with T3, Toll-like receptor 9 (Mus musculus, UniProt Q9EQU3).
T3 sequence (Q9EQU3 whole entry): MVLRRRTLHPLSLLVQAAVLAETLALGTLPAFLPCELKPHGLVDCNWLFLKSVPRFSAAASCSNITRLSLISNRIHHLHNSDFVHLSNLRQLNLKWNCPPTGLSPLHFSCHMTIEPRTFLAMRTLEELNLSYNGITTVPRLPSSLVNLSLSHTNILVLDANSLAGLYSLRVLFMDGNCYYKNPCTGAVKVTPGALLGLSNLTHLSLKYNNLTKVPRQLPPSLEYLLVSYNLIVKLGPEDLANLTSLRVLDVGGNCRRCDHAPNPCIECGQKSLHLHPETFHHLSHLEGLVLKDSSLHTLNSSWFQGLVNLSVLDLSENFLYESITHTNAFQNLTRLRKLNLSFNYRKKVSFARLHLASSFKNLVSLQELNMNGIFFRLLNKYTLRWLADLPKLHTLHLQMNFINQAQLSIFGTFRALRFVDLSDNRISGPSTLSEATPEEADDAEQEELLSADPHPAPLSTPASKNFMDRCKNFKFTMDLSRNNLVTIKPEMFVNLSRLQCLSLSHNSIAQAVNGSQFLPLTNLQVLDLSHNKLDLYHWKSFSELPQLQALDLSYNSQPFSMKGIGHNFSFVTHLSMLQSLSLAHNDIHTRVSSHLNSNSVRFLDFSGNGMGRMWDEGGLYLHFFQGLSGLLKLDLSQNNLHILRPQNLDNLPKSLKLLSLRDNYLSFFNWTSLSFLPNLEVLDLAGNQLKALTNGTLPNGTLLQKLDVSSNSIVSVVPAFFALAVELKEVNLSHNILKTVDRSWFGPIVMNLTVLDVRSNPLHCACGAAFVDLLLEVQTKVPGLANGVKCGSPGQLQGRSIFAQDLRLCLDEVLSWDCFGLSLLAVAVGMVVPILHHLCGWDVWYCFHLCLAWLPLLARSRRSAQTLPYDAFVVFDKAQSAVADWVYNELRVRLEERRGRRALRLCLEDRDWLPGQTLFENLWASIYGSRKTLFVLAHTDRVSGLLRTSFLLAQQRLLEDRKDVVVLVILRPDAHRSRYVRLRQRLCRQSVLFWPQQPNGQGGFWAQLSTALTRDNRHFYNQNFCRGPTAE
Put plainly: Antagonist activity at TLR9 in mouse whole blood inhibition of DOTAP-ODN2216-induced IFNalpha production preincubated for 30 mins followed by DOTAP-ODN2216 addition and measured after 20 hrs by ELISA. The format is tissue-based. For orientation: An ELISA detects its analyte on a solid surface through an enzyme-linked reagent.

The structures appear in SMILES notation. Some results are limits rather than exact numbers.

What is called IC50 is the point on the concentration scale where inhibition reaches its midpoint.

Toll-like receptor 2, sequence (O60603 whole entry): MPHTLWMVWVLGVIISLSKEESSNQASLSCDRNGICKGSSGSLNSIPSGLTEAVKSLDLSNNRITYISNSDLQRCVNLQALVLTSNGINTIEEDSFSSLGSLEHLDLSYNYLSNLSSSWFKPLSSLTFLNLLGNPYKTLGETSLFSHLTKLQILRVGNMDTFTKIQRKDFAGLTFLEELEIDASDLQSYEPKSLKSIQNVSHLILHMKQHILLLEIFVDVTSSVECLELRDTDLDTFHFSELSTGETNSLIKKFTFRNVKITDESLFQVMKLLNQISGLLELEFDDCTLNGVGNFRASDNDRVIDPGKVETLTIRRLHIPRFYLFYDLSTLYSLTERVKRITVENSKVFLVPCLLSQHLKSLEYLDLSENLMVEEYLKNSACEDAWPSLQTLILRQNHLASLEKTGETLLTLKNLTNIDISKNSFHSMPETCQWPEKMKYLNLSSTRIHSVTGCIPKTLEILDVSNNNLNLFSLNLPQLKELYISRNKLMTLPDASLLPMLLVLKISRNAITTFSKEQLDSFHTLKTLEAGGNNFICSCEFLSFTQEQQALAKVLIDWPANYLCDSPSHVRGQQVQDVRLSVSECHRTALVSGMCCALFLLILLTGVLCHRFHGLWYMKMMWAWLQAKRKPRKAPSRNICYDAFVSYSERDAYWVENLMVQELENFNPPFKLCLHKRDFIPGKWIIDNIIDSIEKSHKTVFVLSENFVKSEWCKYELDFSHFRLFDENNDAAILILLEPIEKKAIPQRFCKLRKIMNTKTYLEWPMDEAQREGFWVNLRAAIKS

As for `O=c1ccc(-c2cc(C(F)(F)F)c3nn([C@H]4CCNC[C@@H]4F)cc3c2)c2n1CCC2`, the IC50 at Toll-like receptor 5 is above 6.5 µM; on Toll-like receptor 4, above 6.5 µM; in assay [1] it was above 6.5 µM; on Toll-like receptor 1, above 6.5 µM; on Toll-like receptor 2, above 6.5 µM; against Toll-like receptor 9 it was above 10 µM.
